Numbered stars: 1 amine (or outer) side, 2 acyl side, 3 side chain; on linkers, the order of the positions; unused ones are H or OH. Square brackets hold non-standard residues; d marks the D form. Peptide text beside a SMILES is read from it. * marks the point of attachment. Acetyl(1-adamantyl) = O=C(CC12CC3CC(CC(C3)C1)C2)*; dDip = N[C@@H](C(=O)O)C(c1ccccc1)c1ccccc1; Acetyl(3-pyridyl) = O=C(Cc1cccnc1)*; Fmoc = O=C(OCC1c2ccccc2-c2ccccc21)*; Cyclohexylacetyl = O=C(CC1CCCCC1)*; X1 = CC(C(=O)*)(c1ccccc1)c1ccccc1; Orn = NCCC[C@H](N)C(=O)O; NHcHex = C1CCC(N*)CC1; CO = O=C([*:1])[*:2]; Propionyl = CCC(=O)*
What was measured:
ETB = target: T1, ETB (Rattus norvegicus, UniProt P21451); assay: Endothelin Receptor Binding Assay-B (ETB), [125I]-ET-1 binding in rat cerebellar membranes; settings: Table IIa; rat cerebellar membranes; read-out: Binding Assay IC50 at Receptor Subtypes ETB
T1 construct: thaw one aliquot of frozen rat cerebellar membranes; from tissue; host or cells: rat cerebellar membranes
T1 sequence (P21451 27-442): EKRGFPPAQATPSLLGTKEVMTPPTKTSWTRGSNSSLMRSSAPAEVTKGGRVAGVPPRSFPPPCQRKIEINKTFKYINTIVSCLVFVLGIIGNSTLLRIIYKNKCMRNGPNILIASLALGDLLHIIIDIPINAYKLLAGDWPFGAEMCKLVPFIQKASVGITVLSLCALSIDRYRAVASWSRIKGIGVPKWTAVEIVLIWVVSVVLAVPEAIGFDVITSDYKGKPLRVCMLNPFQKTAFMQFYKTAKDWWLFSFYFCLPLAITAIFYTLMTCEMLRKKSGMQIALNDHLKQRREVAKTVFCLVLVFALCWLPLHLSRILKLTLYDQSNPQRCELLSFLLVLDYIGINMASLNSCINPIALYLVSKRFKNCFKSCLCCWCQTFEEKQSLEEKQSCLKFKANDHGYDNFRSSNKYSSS
Protocol: The tissue is made up of 20 mM tris(hydroxymethyl)aminomethane hydrochloride (Trizma) buffer, 2 mM ethylenediaminetetraacetate, 100 μM phenylmethylsulfonyl fluoride.
First, thaw one aliquot of frozen rat cerebellar membranes (2 mg protein in 0.5 mL). Next, add 0.5 mL membrane aliquot to 4.5 mL cold tissue buffer, polytron at 7,500 revolutions per minute for 10 seconds. Finally, dilute tissue suspension 1/100 (0.1 mL suspension+9.9 mL tissue buffer), polytron again, and place ice.
Mix in 150 μL of tissue to each tube, vortex briefly, then tap to force all liquids to bottom (total assay volume=250 μL). Then place the tubes in a 37° C. water bath for 2 hours.
Add 2.5 mL cold water buffer (50 mM Trizma buffer) to each tube, filter, and then wash tube with additional 2.5 mL wash buffer and add to filter. Finally, wash filters with an additional 2.5 mL of cold wash buffer.
Count filters for radioactivity in gamma counter.

ETA = target: T2, ETA (Oryctolagus cuniculus, UniProt A5A8K3); assay: Endothelin Receptor Binding Assay-A (ETA), intact cell binding of [125I]-ET-1; design: species or system rabbit; settings: Table IIa; rabbit renal artery vascular smooth muscle cells; read-out: Binding Assay IC50 at Receptor Subtypes ETA
T2 construct: The cells used were rabbit renal artery vascular smooth muscle cells; endogenous in cells; host or cells: rabbit renal artery vascular smooth muscle cells
T2 sequence (A5A8K3 21-427): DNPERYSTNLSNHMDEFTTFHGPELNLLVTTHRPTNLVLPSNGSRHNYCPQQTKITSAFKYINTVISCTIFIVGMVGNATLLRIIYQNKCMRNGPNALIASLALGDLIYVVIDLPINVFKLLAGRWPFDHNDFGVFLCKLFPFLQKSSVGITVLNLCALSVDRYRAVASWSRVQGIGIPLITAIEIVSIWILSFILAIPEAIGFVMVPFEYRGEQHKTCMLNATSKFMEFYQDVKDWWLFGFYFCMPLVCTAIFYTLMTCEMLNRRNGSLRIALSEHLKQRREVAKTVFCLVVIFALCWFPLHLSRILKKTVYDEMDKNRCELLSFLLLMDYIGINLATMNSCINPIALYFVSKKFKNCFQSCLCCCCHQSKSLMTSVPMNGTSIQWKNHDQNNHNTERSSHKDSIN
Protocol: The cells used were rabbit renal artery vascular smooth muscle cells grown in a 48-well dish (1 cm^2) (confluent cells).
The growth media was Dulbeccos Modified Eagles/Ham's F12 which contained 10 fetal bovine serum and antibiotics (penicillin/streptomycin/fungizone).
Second, remove the assay buffers, place the dish on ice, and add 150 μL of cold assay buffer described above to each well. […] Next, place dish in a 37° C. water bath for about 2 hours and gently agitate the dish every 15 minutes. Discard the radioactive incubation mixture in the sink and wash wells 3 times with 1 mL of cold phosphate buffered saline. Last, add […] of 0.25M sodium hydroxide, agitate for 1 hour on rotator, and then transfer the sodium hydroxide extract to gamma counting tubes and count the radioactivity.

Row | IC50 (ETB) | IC50 (ETA) | Structure (SMILES)
1 | 1.3 µM | 0.65 µM | CC[C@H](C)[C@H](NC(=O)[C@H](CC(=O)O)NC(=O)[C@H](CCC(=O)O)NC(=O)[C@@H](Cc1ccccc1)NC(C)=O)C(=O)N[C@H](C(=O)N[C@@H](Cc1c[nH]c2ccccc12)C(=O)O)[C@@H](C)CC [Example 9, Ac--D--Phe--Glu--Asp--Ile--Ile--Trp] (Ac-[dF]EDIIW-OH)
2 |  | 0.4 µM | CC[C@H](C)[C@H](NC(=O)[C@H](CC(=O)O)NC(=O)[C@H](CC(C)C)NC(=O)[C@@H](Cc1ccc(O)cc1)NC(C)=O)C(=O)N[C@H](C(=O)N[C@@H](Cc1c[nH]c2ccccc12)C(=O)O)[C@@H](C)CC [Example 10, Ac--D--Tyr--Leu--Asp--Ile--Ile--Trp] (Ac-[dY]LDIIW-OH)
3 | 0.008 µM | 1 µM | CC[C@H](C)[C@H](NC(=O)[C@H](Cc1ccccc1)NC(=O)[C@H](CC(C)C)NC(=O)[C@H](NC(C)=O)C(c1ccccc1)c1ccccc1)C(=O)N[C@H](C(=O)N[C@@H](Cc1c[nH]c2ccccc12)C(=O)O)[C@@H](C)CC [Example 16, Ac--D--Dip--Leu--Phe--Ile--Ile--Trp] (Ac-[dDip]LFIIW-OH)
4 | 6 µM | 1 µM | CC[C@H](C)[C@H](NC(=O)[C@H](CCC(=O)O)NC(=O)[C@H](CC(=O)O)NC(=O)[C@H](CC(C)C)NC(=O)[C@H](NC(C)=O)C(c1ccccc1)c1ccccc1)C(=O)N[C@@H](Cc1c[nH]c2ccccc12)C(=O)O [Example 19, Ac--D--Dip--Leu--Asp--Glu--Ile--Trp] (Ac-[dDip]LDEIW-OH)
5 | 5 µM | 0.32 µM | CC[C@H](C)[C@H](NC(=O)[C@H](CC(=O)O)NC(=O)[C@H](CC(C)C)NC(=O)[C@H](NC(C)=O)C(c1ccccc1)c1ccccc1)C(=O)N[C@H](C(=O)N[C@@H](Cc1c[nH]c2ccccc12)C(N)=O)[C@@H](C)CC [Example 24, Ac--D--Dip--Leu--Asp--Ile--Ile--Trp--NH2] (Ac-[dDip]LDIIW-NH2)
6 | 1.7 µM | 8 µM | CC[C@H](C)[C@H](NC(=O)[C@H](CC(=O)O)NC(=O)[C@H](CC(C)C)NC(=O)C(C)(c1ccccc1)c1ccccc1)C(=O)N[C@H](C(=O)N[C@@H](Cc1c[nH]c2ccccc12)C(=O)O)[C@@H](C)CC [Example 28, Bppa--Leu--Asp--Ile--Ile--Trp] (X1-LDIIW-OH)
7 | 6 µM | 6 µM | CC[C@H](C)[C@H](NC(=O)[C@H](CC(=O)O)NC(=O)[C@H](CC(C)C)NC(=O)[C@H](NC(=O)OCC1c2ccccc2-c2ccccc21)C(c1ccccc1)c1ccccc1)C(=O)N[C@H](C(=O)N[C@@H](Cc1c[nH]c2ccccc12)C(=O)O)[C@@H](C)CC [Example 30, Fmoc--D--Dip--Leu--Asp--Ile--Ile--Trp] (Fmoc-[dDip]LDIIW-OH)
8 | 2 µM | 1.8 µM | CCC(=O)N[C@@H](C(=O)N[C@@H](CC(C)C)C(=O)N[C@@H](CC(=O)O)C(=O)N[C@H](C(=O)N[C@H](C(=O)N[C@@H](Cc1c[nH]c2ccccc12)C(=O)O)[C@@H](C)CC)[C@@H](C)CC)C(c1ccccc1)c1ccccc1 [Example 31, Et--D--Dip--Leu--Asp--Ile--Ile--Trp] (Propionyl-[dDip]LDIIW-OH)
9 | 0.18 µM | 5 µM | CC[C@H](C)[C@H](NC(=O)[C@H](CC(=O)O)NC(=O)[C@H](CC(C)C)NC(=O)[C@H](NC(=O)Cc1cccnc1)C(c1ccccc1)c1ccccc1)C(=O)N[C@H](C(=O)N[C@@H](Cc1c[nH]c2ccccc12)C(=O)O)[C@@H](C)CC [Example 33, Pya--D--Dip--Leu--Asp--Ile--Ile--Trp] ({Acetyl(3-pyridyl)}-[dDip]LDIIW-OH)
10 | 0.2 µM | 3.4 µM | CC[C@H](C)[C@H](NC(=O)[C@H](CC(=O)O)NC(=O)[C@H](CC(C)C)NC(=O)[C@H](NC(=O)CC1CCCCC1)C(c1ccccc1)c1ccccc1)C(=O)N[C@H](C(=O)N[C@@H](Cc1c[nH]c2ccccc12)C(=O)O)[C@@H](C)CC [Example 34, Cxl--D--Dip--Leu--Asp--Ile--Ile--Trp] (Cyclohexylacetyl-[dDip]LDIIW-OH)
11 | 0.5 µM | 4 µM | CC[C@H](C)[C@H](NC(=O)[C@H](CC(=O)O)NC(=O)[C@H](CC(C)C)NC(=O)[C@H](NC(=O)CC12CC3CC(CC(C3)C1)C2)C(c1ccccc1)c1ccccc1)C(=O)N[C@H](C(=O)N[C@@H](Cc1c[nH]c2ccccc12)C(=O)O)[C@@H](C)CC [Example 35, Ada--D--Dip--Leu--Asp--Ile--Ile--Trp] ({Acetyl(1-adamantyl)}-[dDip]LDIIW-OH)
12 | 1.5 µM | 1 µM | CC[C@H](C)[C@H](NC(=O)[C@H](CC(=O)O)NC(=O)[C@H](CC(C)C)NC(=O)[C@H](NC(=O)NC)C(c1ccccc1)c1ccccc1)C(=O)N[C@H](C(=O)N[C@@H](Cc1c[nH]c2ccccc12)C(=O)O)[C@@H](C)CC [Example 37, Me(U) --D--Dip--Leu--Asp--Ile--Ile--Trp] ({NHMe-CO}-[dDip]LDIIW-OH)

Row | Structure (SMILES) | IC50 (ETB) | IC50 (ETA)
13 | CC[C@H](C)[C@H](NC(=O)[C@H](CC(=O)O)NC(=O)[C@H](CC(C)C)NC(=O)[C@@H](Cc1ccccc1)NC(C)=O)C(=O)N[C@H](C(=O)N[C@@H](Cc1c[nH]c2ccccc12)C(=O)O)[C@@H](C)CC [Example 1, Ac--D--Phe--Leu--Asp--Ile--Ile--Trp] (Ac-[dF]LDIIW-OH) | 3.3 µM | 
14 | CC[C@H](C)[C@H](NC(=O)[C@H](CC(=O)O)NC(=O)[C@H](CCCN)NC(=O)[C@@H](Cc1ccccc1)NC(C)=O)C(=O)N[C@H](C(=O)N[C@@H](Cc1c[nH]c2ccccc12)C(=O)O)[C@@H](C)CC [Example 8, Ac--D--Phe--Orn--Asp--Ile--Ile--Trp] (Ac-[dF][Orn]DIIW-OH) | 4 µM | 
15 | CC[C@H](C)[C@H](NC(=O)[C@H](CC(=O)O)NC(=O)[C@H](CC(C)C)NC(=O)[C@H](NC(=O)NC1CCCCC1)C(c1ccccc1)c1ccccc1)C(=O)N[C@H](C(=O)N[C@@H](Cc1c[nH]c2ccccc12)C(=O)O)[C@@H](C)CC [Example 36, Cxl(U)--D--Dip--Leu--Asp--Ile--Ile--Trp] ({NHcHex-CO}-[dDip]LDIIW-OH) | 0.05 µM | 0.82 µM
16 | CC[C@H](C)[C@H](NC(=O)[C@H](CC(=O)O)NC(=O)[C@H](CC(C)C)NC(=O)[C@H](N)C(c1ccccc1)c1ccccc1)C(=O)N[C@H](C(=O)N[C@@H](Cc1c[nH]c2ccccc12)C(=O)O)[C@@H](C)CC [Example 49, D--Dip--Leu--Asp--Ile--Ile--Trp] (H-[dDip]LDIIW-OH) |  | 2.1 µM
17 | CC[C@H](C)[C@H](NC(=O)[C@H](CC(=O)O)NC(=O)[C@H](Cc1ccccc1)NC(=O)[C@@H](Cc1ccccc1)NC(C)=O)C(=O)N[C@H](C(=O)N[C@@H](Cc1c[nH]c2ccccc12)C(=O)O)[C@@H](C)CC [Example 60, Ac--D--Phe--Phe--Asp--Ile--Ile--Trp] (Ac-[dF]FDIIW-OH) | 0.3 µM | 
18 | CC[C@H](C)[C@H](NC(=O)[C@H](CC(=O)O)NC(=O)[C@@H](Cc1ccccc1)NC(=O)[C@@H](Cc1ccccc1)NC(C)=O)C(=O)N[C@H](C(=O)N[C@@H](Cc1c[nH]c2ccccc12)C(=O)O)[C@@H](C)CC [Example 61, Ac--D--Phe--D--Phe--Asp--Ile--Ile--Trp] (Ac-[dF][dF]DIIW-OH) | 0.01 µM | 
19 | CC[C@H](C)[C@H](NC(=O)[C@H](Cc1ccccc1)NC(=O)[C@H](CC(C)C)NC(=O)[C@@H](Cc1ccccc1)NC(C)=O)C(=O)N[C@H](C(=O)N[C@@H](Cc1c[nH]c2ccccc12)C(=O)O)[C@@H](C)CC [Example 67, Ac--D--Phe--Leu--Phe--Ile--Ile--Trp] (Ac-[dF]LFIIW-OH) | 0.035 µM | 

Reference: US5773414A, “Endothelin antagonists” (Warner-Lambert Company, priority 1997, dated 1998)
